The compounds below were run against PHGDH (Homo sapiens (Human), UniProt O43175) (assay: PHGDH inhibition, coupled assay with PSAT1/PSPH and diaphorase/resazurin readout). Conditions: Table E9; mixture with PSAT1, PSPH; diaphorase/resazurin reporter.
Assay type: biochemical
Description: Compounds of the invention were assayed for inhibition of the activity phosphoglycerate dehydrogenase (PHGDH). The compounds were assayed in a mixture comprising PHGDH, PSAT1, PSPH, NADH, and glutamate. Diaphorase and resazurin were used as a fluorescent reporter system.
In this endogenous pathway coupled assay, the production of NADH by PHGDH was measured through the diaphorasemediated reduction of resazurin (See, e.g., Chakraborty, S., Sakka, M., Kimura, T. & Sakka, K. “Characterization of a dihydrolipoyl dehydrogenase having diaphorase activity of Clostridium kluyveri.” BioscL Biotechnol. Biochem. 72, 982-988 (2008)).
PHGDH assay buffer contained 50 mM TEA pH 8.0, 10 mM MgCl2, 0.05% BSA, and 0.01% Tween-20. PHGDH enzyme buffer consisted of assay buffer with 20 nM PHGDH and 0.2 mg/mL diaphorase. PHGDH substrate buffer contained 0.3 mM NAD 1.25 mM glutamate, 0.1 mM 3-phosphoglycerate, 0.2 mM resazurin, 1 μM PSAT1, and 1 μM PSPH. qHTS was performed in 1536-well plates dispensed with a BioRAPTR FRD. Each well contained equal volumes of substrate buffer and assay buffer. Plates were read at 0 minutes and 20 minutes at room temperature with a ViewLux uHTS Microplate Imager (PerkinElmer). Follow-up assays were performed in black 384-well plates (Greiner) in 20 μL of enzyme buffer to which compounds were added in dose-response with an HP D300 digital dispenser (Hewlett-Packard), followed by addition of 20 μL of substrate buffer. Plates were incubated at room temperature (25° C.) and read at 0 and 20 minutes with a Spectramax M5 plate reader (Molecular Devices) in fluorescence intensity mode with a λex=550 nm and λem=600 nm (emission cutoff=590 nm).

PHGDH, sequence (O43175 whole entry): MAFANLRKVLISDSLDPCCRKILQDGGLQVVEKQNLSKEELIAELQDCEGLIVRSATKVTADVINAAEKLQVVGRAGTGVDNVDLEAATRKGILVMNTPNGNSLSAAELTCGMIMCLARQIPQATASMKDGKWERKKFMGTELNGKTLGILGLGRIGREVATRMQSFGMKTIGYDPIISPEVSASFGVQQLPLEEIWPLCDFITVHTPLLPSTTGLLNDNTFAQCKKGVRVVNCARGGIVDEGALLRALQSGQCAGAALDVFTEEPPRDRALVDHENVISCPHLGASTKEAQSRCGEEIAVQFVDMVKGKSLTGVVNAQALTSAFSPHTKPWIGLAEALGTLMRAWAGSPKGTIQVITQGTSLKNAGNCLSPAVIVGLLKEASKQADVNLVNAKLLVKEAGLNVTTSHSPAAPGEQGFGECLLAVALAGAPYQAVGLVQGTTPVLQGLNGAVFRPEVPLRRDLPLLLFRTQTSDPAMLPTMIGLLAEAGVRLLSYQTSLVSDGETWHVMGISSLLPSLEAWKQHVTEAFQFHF

Row | SMILES | IC50 [µM]
1 | Cc1ccnc(NC(=S)N2CCN(c3cccc(C(F)(F)F)c3)C2)c1 [Compound 44] | ≥ 20
2 | Cc1ccnc(NC(=S)N2CCN(c3cc(C(F)(F)F)cc(C(F)(F)F)c3)CC2)c1 [Compound 170] | 5 to 10
3 | Cc1ccnc(NC(=S)NCCNc2cccc(C(F)(F)F)c2)c1 [Compound 22] | 5 to 10
4 | O=C(Nc1cccc([S+](=O)([O-])Nc2ccccc2F)c1)c1cccs1 [Compound 245] | ≥ 20
5 | Cc1cc2nc(NC(=S)N3CCN(c4cccc(C(F)(F)F)c4)CC3)[nH]c2cc1C [Compound 241] | ≥ 20
6 | Cc1cc(C)nc(NC(=C(C#N)C#N)N2CCN(c3cccc(C(F)(F)F)c3)CC2)c1 [Compound 96] | ≥ 20
7 | Cc1ccnc(N(C)C(=S)N2CCN(c3cccc(C(F)(F)F)c3)CC2)c1 [Compound 52] | ≥ 20
8 | FC(F)(F)c1cccc(N2CCN(C(=S)Nc3cc[nH]n3)CC2)c1 [Compound 236] | 5 to 10
9 | FC(F)(F)c1cccc(N2CCN(C(=S)Nc3nc[nH]n3)CC2)c1 [Compound 234] | ≥ 20
10 | FC(F)(F)c1cc(N2CCN(C(=S)Nc3cc(Cl)ccn3)CC2)cc(C(F)(F)F)c1 [Compound 198] | ≥ 20
11 | Cc1ccnc(C(=S)N2CCN(c3cccc(C(F)(F)F)c3)CC2)c1 [Compound 62] | ≥ 20
12 | Cc1cc(C)nc(NC(=S)N2CCN(Cc3ccc(C(F)(F)F)cc3)[C@@H](C)C2)c1 [Compound 297] | < 5
13 | Cc1cc(C)nc(NC(=S)N2CCC(NC(=O)c3cccc(C(F)(F)F)c3)CC2)c1 [Compound 263] | < 5
14 | N=C(NC(=S)N1CCN(c2cccc(C(F)(F)F)c2)CC1)c1ccccn1 [Compound 238] | ≥ 20
15 | Cc1ccnc(NC(=S)N2CCN(C)CC2)c1 [Compound 16] | ≥ 20
16 | Cc1ccnc(NC(=S)N2CCc3ccccc3C2)c1 [Compound 51] | ≥ 20
17 | COc1ccnc(NC(=S)N2CCN(c3cccc(C(F)(F)F)c3)CC2)c1 [Compound 36] | < 5
18 | Cc1ccnc(NC(=S)N2CCN(c3ccc(C(F)(F)F)cc3)CC2)c1 [Compound 4] | 5 to 10

Row | SMILES | IC50 [µM]
19 | COc1ccc2nc(NC(=S)N3CCN(c4cccc(C(F)(F)F)c4)CC3)[nH]c2c1 [Compound 243] | < 5
20 | Cc1ccnc(NC(=S)N2CCNCC2)c1 [Compound 53] | ≥ 20
21 | Cc1cc(C)nc(NC(=S)N2CCC(C(=O)N3CCOCC3)CC2)c1 [Compound 257] | ≥ 20
22 | Cc1cc(C)nc(NC(=S)N2CCCC(NC(=O)c3ccc(C(F)(F)F)cc3)C2)c1 (stereo not shown) [Compound 264, N-(1-((4,6-dimethylpyridin-2-yl)carbamothioyl)piperidin-3-yl)-4-(trifluoromethyl)benzamide] | < 5
23 | Cc1ccnc(NC(=S)N2CCC(Nc3cccc(C(F)(F)F)c3)CC2)c1 [Compound 56] | 5 to 10
24 | CSC(Cc1ccc(Cl)cc1)C(=O)Nc1ccc(Cl)cc1C(=O)O (stereo not shown) [Compound 19] | ≥ 20
25 | COc1cccc(NC(=S)N2CCN(c3ccccc3C(F)(F)F)CC2)n1 [Compound 193] | < 5
26 | CC(=O)N1CCN(C(=S)Nc2cc(C)ccn2)CC1 [Compound 18] | ≥ 20
27 | S=C(Nc1cc(Cl)ccn1)N1CCN(c2cc(Cl)cc(Cl)c2)CC1 [Compound 197] | ≥ 20
28 | Cc1nc(CN(C)c2ncnc3ccc(-c4ccc5[nH]ncc5c4)cc23)cs1 [Compound 222] | ≥ 20
29 | Cc1ccc2nc(NC(=S)N3CCN(c4cccc(C(F)(F)F)c4)CC3)[nH]c2c1 [Compound 242] | < 5
30 | Cc1cc(C)nc(NC(=S)N2CCC(CN3CCCCC3)CC2)c1 [Compound 271] | ≥ 20
31 | Cc1cc(C)nc(NC(=S)N2CCN(CCN3CCCCC3)CC2)c1 [Compound 256] | ≥ 20
32 | Cc1cc(C)nc(NC(=S)N2CCCC(Nc3ccc(C(F)(F)F)cc3)C2)c1 (stereo not shown) [Compound 252] | < 5
33 | COc1cccc(NC(=S)N2CCN(c3cccc(C(F)(F)F)n3)CC2)n1 [Compound 194] | 5 to 10
34 | Cc1cc(C)nc(NC(=S)N2CCC(C(=O)N3CCCCC3)CC2)c1 [Compound 260] | ≥ 20
35 | Cc1ccnc(NC(=S)N2CC3CN(c4cccc(C(F)(F)F)c4)CC3C2)c1 (stereo not shown) [Compound 45] | 10 to 20

Results, then the compound that gave them:

Row | IC50 [µM] | SMILES
36 | ≥ 20 | COc1cccc(NC(=S)N2CCN(c3ccc(Cl)c(Cl)c3)CC2)n1 [Compound 191]
37 | 10 to 20 | Cc1cc(C)nc(NC(=S)N2CCN(Cc3ccccc3)CC2)c1 [Compound 274]
38 | 10 to 20 | Cc1cc(C)nc(NC(=S)N2CCN(c3ccc([N+](=O)[O-])cc3Cl)CC2)c1 [Compound 217]
39 | 10 to 20 | Cc1ccnc(NC(=S)N2CCCN(c3cccc(C(F)(F)F)c3)CC2)c1 [Compound 49]
40 | 10 to 20 | Cc1cc(C)nc(NC(=S)N2CCN(c3cccc4cnccc34)CC2)c1 [Compound 147]
41 | ≥ 20 | Cc1cc(C)nc(NC(=S)N2CCN(c3ccc4nonc4c3)CC2)c1 [Compound 159]
42 | ≥ 20 | Cc1ccnc(NC(=S)N2CCN(c3ccc(N)cc3)CC2)c1 [Compound 17]
43 | 10 to 20 | Cc1cc(C)cc(N2CCN(C(=S)Nc3cc(C)cc(C)n3)CC2)c1 [Compound 213]
44 | 5 to 10 | Cc1ccnc(NC(=S)N2CCN(c3ccc(Cl)c(Cl)c3)CC2)c1 [Compound 173]
45 | 10 to 20 | Cc1ccnc(NC(=S)N2CCN(c3ccc4ccccc4n3)CC2)c1 [Compound 177]
46 | 10 to 20 | COc1cccc(NC(=S)N2CCN(c3cccc(Cl)c3Cl)CC2)n1 [Compound 189]
47 | ≥ 20 | Cc1cc(C)nc(NC(=S)N2CCN(c3ccc(Cl)c(Cl)c3)CC2)c1 [Compound 92]
48 | 10 to 20 | Cc1cc(C)nc(NC(=S)N2CCN(c3nc4ccccc4s3)CC2)c1 [Compound 106]
49 | < 5 | Cc1cc(C)nc(NC(=S)N2CCN(Cc3cccc(OC(F)(F)F)c3)CC2)c1 [Compound 299]
50 | ≥ 20 | Cc1cc(C)nc(NC(=S)N2CCN(c3cccc([S+](C)(=O)[O-])c3)CC2)c1 [Compound 140]
51 | 10 to 20 | Cc1cc(C)nc(NC(=S)N2CCN(Cc3cccc(F)c3)CC2)c1 [Compound 277]
52 | 10 to 20 | Cc1cc(C)nc(NC(=S)N2CCN(Cc3cccc(Br)c3)CC2)c1 [Compound 282]
53 | 5 to 10 | Cc1cc(C)nc(NC(=S)N2CCN(c3cc(Br)cc(C(F)(F)F)c3)CC2)c1 [Compound 142]
54 | ≥ 20 | Cc1cc(C)nc(NC(=S)N2CCN(c3cc(Cl)cc(Cl)n3)CC2)c1 [Compound 207]
55 | ≥ 20 | S=C(Nc1cc(Cl)ccn1)N1CCN(c2ccc(Cl)cc2Cl)CC1 [Compound 199]
56 | ≥ 20 | CCOC(=O)N1CCN(C(=S)Nc2cc(C)cc(C)n2)CC1 [Compound 259]
57 | 10 to 20 | Cc1cc(C)nc(NC(=S)N2CCN(c3ncccc3Cl)CC2)c1 [Compound 79]
58 | < 5 | Cc1cccc(CN2CCN(C(=S)Nc3cc(C)cc(C)n3)CC2)c1 [Compound 291]
59 | 10 to 20 | Cc1cc(C)nc(NC(=S)N2CCN(Cc3ccc(F)cc3)CC2)c1 [Compound 279]
60 | 10 to 20 | Cc1cccc(N2CCN(C(=S)Nc3cc(C)ccn3)CC2)c1 [Compound 39]
61 | ≥ 20 | Cc1cc(C)nc(NC(=S)N2CCN(c3cnc4nccn4c3)CC2)c1 [Compound 160]
62 | ≥ 20 | Cc1cc(C)nc(NC(=S)N2CCN(c3cnccn3)CC2)c1 [Compound 118]

Row | IC50 [µM] | SMILES
63 | ≥ 20 | Cc1cc(C)nc(NC(=S)N2CCN(c3cccc4nccn34)CC2)c1 [Compound 150]
64 | < 5 | Cc1cc(C)nc(NC(=S)N2CCN(c3nccc(C(F)(F)F)n3)CC2)c1 [Compound 117]
65 | 10 to 20 | Cc1cc(C)nc(NC(=S)N2CCN(c3cccc4[nH]ccc34)CC2)c1 [Compound 155]
66 | ≥ 20 | Cc1cc(C)nc(NC(=S)N2CCN(c3cc(C#N)cc(C#N)c3)CC2)c1 [Compound 205]
67 | 10 to 20 | Cc1ccnc(NC(=S)N2CCN(c3cccc(N(C)C)c3)CC2)c1 [Compound 6]
68 | 10 to 20 | Cc1cc(C)nc(NC(=S)N2CCN(Cc3ccc(Br)cc3)CC2)c1 [Compound 281]
69 | ≥ 20 | Cc1cc(C)nc(NC(=S)N2CCN(c3ccc([S+](C)(=O)[O-])cc3F)CC2)c1 [Compound 109]
70 | 5 to 10 | Cc1cc(C)nc(NC(=S)N2CCN(Cc3c(F)cccc3Cl)CC2)c1 [Compound 94]
71 | < 5 | Cc1cc(C)nc(NC(=S)N2CCC(Cc3ccccc3)CC2)c1 [Compound 254]
72 | 5 to 10 | Cc1ccnc(NC(=S)N2CCN(c3cccc(Cl)c3Cl)CC2)c1 [Compound 171]
73 | ≥ 20 | Cc1cc(C)nc(NC(=S)N2CCN(c3ncccn3)CC2)c1 [Compound 80]
74 | 5 to 10 | Cc1cc(C)nc(NC(=S)N2CCN(c3ccc4ccccc4c3)CC2)c1 [Compound 70]
75 | ≥ 20 | Cc1cc(C)nc(NC(=S)N2CCN(c3cncs3)CC2)c1 [Compound 157]
76 | ≥ 20 | Cc1cc(C)nc(NC(=S)N2CCN(c3ccc(N[S+](C)(=O)[O-])nn3)CC2)c1 [Compound 83]
77 | 10 to 20 | Cc1cc(C)nc(NC(=S)N2CCN(c3cccc4ccncc34)CC2)c1 [Compound 149]
78 | 10 to 20 | Cc1cc(C)nc(NC(=S)N2CCN(c3nnc(C(F)(F)F)s3)CC2)c1 [Compound 107]
79 | 10 to 20 | Cc1cc(C)nc(NC(=S)N2CCN(c3cc(C(F)(F)F)nc(C)n3)CC2)c1 [Compound 153]
80 | 5 to 10 | Cc1cc(C)nc(NC(=S)N2CCN(c3cc(C(F)(F)F)nc4ccc(C(F)(F)F)cc34)CC2)c1 [Compound 158]
81 | < 5 | Cc1cc(C)nc(NC(=S)N2CCC(Nc3ccc(C(F)(F)F)cc3)CC2)c1 [Compound 258]
82 | ≥ 20 | Cc1cc(C)nc(NC(=S)N2CCN(c3ccc4nccn4c3)CC2)c1 [Compound 162]
83 | 5 to 10 | Cc1cc(C)nc(NC(=S)N2CCN(c3cccc(C(F)(F)F)c3)CC2)c1 [Compound 24]
84 | 10 to 20 | Cc1cc(C)nc(NC(=S)N2CCN(c3ccc(Cl)c(C(F)(F)F)c3)CC2)c1 [Compound 211]
85 | ≥ 20 | Cc1cc(C)nc(NC(=S)N2CCN(c3nccc4ccsc34)CC2)c1 [Compound 156]
86 | 10 to 20 | Cc1cc(C)nc(NC(=S)N2CCN(c3nccc4ccccc34)CC2)c1 [Compound 132]
87 | ≥ 20 | Cc1ccnc(NC(=S)N2CCN(c3ccc(Cl)cc3)CC2)c1 [Compound 8]
88 | < 5 | Cc1cc(C)nc(NC(=S)N2CCN(CC(C)(C)C)CC2)c1 [Compound 269]

From patent US11225469B2, “Inhibitors of phosphoglycerate dehydrogenase (PHGDH) and uses thereof” (Whitehead Institute for Biomedical Research, priority 2015, dated 2022)
